Measurements taken from patent publication US20120196899A1, “METHODS AND PRODUCTS FOR TREATING INFLAMMATION” (Rock Creek Pharmaceuticals, Inc., priority 2010, published 2012).
Like-named read-outs stand apart in the source and are kept apart here.

How the values were obtained:
nAChR α3/β4 [1] = target: T1, nAChR α3/β4 (Homo sapiens, UniProt P30926+P32297); assay: nAChR α3/β4 channel agonist assay (FLIPR, Fluo-8 calcium); conditions: 30 μM Ach = 100%, HBPS = 0%
Method: (§1) The following three (3) channels were evaluated: • 1. nAChR α3/β4 (encoded by the human CHRNA3 and CHRNB4 gene and stably expressed in CHO cells); • 2. nAChR α4/β2 (CHRNA4 and CHRNB2 gene and transiently expressed in HEK293 cells); and • 3. nAChR α7 (encoded by the human nicotinic α7 gene coexpressed in CHO cells with the chaperone RIC-3 encoded by the human RIC3 gene).
(§2) The ability of each test article to act as an agonist, a positive allosteric modulator or antagonist of three nAChR receptor channels was evaluated in the presence of 0.1 atropine. Both test articles were evaluated for responses on each nAChR channel at eight (8) concentrations: 0.3, 1, 3, 10, 30, 100, 300, and 1000 μM (n=4 for each concentration).
(§3) HEK293 or CHO cells were transiently or stably transfected with the appropriate human ion channel cDNAs. Stable transfectants were selected by coexpression with the antibiotic-resistance gene(s) incorporated into the expression plasmid(s). Selection pressure was maintained by including selection antibiotics in the culture medium. HEK293 cells were cultured in Dulbecco's Modified Eagle Medium/Nutrient Mixture F-12 (D-MEM/F-12) supplemented with 10% fetal bovine serum, 100 U/mL penicillin G sodium, 100 g/mL streptomycin sulfate and appropriate selection antibiotics. CHO cells were cultured in Ham's F-12 supplemented with 10% fetal bovine serum, 100 U/mL penicillin G sodium, 100 g/mL streptomycin sulfate and appropriate selection antibiotics.
(§4) For FLIPR TETRA™ assay, cells were plated in 384-well black wall, flat clear bottom microtiter plates (Type: BD Biocoat Poly-D-Lysine Multiwell Cell Culture Plate) at 20,000 to 30,000 cells per well (384-well plate). Cells were incubated at 37° C. overnight or until the cells reached a sufficient density in the wells (near confluent monolayer) to use in fluorescence assays. For α4β2 assay, cells were incubated at 27° C. for at least 7 hours before use.
(§5) Experiments were performed with either the FLIPR calcium sensitive dye kit (Fluo-8, ABDbioquest, for nAChR α3/β4 and nAChR α7) or FLIPR membrane potential kit (Molecular Devices, for nAChR α4/β2) according to the manufacturer's instructions. Briefly, cells were incubated with 201 dye for 30 min at 37° C. After dye loading period, for the agonist assay, 5 μl of the test, vehicle, or control articles at concentration of 5 times of final concentration were applied to the cells without stimulation. For the positive allosteric modulation (PAM) and antagonist assay, after test article application, the cells were stimulated with either low dose (for PAM) or high dose (for antagonist) of Ach.
(§6) Concentration-response data was fitted to a Hill equation of the following form:
(§7) where Base is the response at low concentrations of test article, Max is the maximum response at high concentrations, xhalf is the EC50 or IC50, the concentration of test article producing either half-maximal activation or inhibition, and rate is the Hill coefficient. Nonlinear least squares fits were made assuming a simple one-to-one binding model.
The ability of both test articles to act as an agonist of nAChR carried out in the absence of the positive control agonist. The signal elicited in the presence of the positive control agonist, 30 μM acetylcholine (Ach) was set to 100% and the signal from the vehicle control, HEPES-buffered physiological saline (HBPS) solution was set to 0%.

nAChR α4/β2 = target: T2, nAChR α4/β2 (Homo sapiens, UniProt P17787+P43681); assay: nAChR α4/β2 channel agonist assay (FLIPR membrane potential); format: cell-based; conditions: 30 μM Ach = 100%, HBPS = 0%
T2 construct: host or cells: HEK293 cells, transient transfection
Method: as §1, §2, §3, §4, §5, §6, §7
The ability of each test article to act as an agonist of the nAChR carried out in the absence of the positive control agonist. The signal elicited in the presence of the positive control agonist (30 μM Ach) was set to 100% and the signal from the vehicle control (HBPS) was set to 0%. Values were considered significant (bold font) if the test article mean was three or more standard deviations above from the vehicle control mean.

nAChR α7 = target: T3, nAChR α7 (Homo sapiens, UniProt P36544); assay: nAChR α7 channel agonist assay (FLIPR, with PNU-120596); format: cell-based; conditions: in presence of PNU-120596, 30 μM Ach + 10 μM PNU-120596 = 100%, HBPS = 0%
T3 construct: host or cells: CHO cells
Method: Therefore, the assay of agonist activity for either Ach or for the test articles was conducted in the presence of the positive allosteric modulator.

nAChR α3/β4 [2] = target: T1, nAChR α3/β4; conditions: with 10 μM Ach (= 0%), 10 μM Ach + 1 μM epibatidine = 100%
Method: as §3, §4, §5
The signal elicited in the presence of the positive control agonist and allosteric modulator (10 μM Ach+1 μM epibatidine) was set to 100% and the signal from the agonist control (10 μM Ach) was set to 0%.

T1 sequence (P32297 32-505): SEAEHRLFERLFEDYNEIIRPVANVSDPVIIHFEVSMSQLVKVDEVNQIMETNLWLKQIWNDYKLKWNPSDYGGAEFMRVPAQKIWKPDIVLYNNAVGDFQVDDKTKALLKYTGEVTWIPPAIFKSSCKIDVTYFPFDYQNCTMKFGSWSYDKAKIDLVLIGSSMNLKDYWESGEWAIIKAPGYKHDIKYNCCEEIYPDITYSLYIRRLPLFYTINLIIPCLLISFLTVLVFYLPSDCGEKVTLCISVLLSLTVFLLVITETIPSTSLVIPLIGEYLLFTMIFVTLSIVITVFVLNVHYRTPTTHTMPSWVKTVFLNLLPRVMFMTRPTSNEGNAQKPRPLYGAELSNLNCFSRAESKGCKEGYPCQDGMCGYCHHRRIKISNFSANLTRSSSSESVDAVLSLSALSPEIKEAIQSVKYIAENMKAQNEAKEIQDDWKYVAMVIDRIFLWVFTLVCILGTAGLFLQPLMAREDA
T1 sequence (P30926 22-498): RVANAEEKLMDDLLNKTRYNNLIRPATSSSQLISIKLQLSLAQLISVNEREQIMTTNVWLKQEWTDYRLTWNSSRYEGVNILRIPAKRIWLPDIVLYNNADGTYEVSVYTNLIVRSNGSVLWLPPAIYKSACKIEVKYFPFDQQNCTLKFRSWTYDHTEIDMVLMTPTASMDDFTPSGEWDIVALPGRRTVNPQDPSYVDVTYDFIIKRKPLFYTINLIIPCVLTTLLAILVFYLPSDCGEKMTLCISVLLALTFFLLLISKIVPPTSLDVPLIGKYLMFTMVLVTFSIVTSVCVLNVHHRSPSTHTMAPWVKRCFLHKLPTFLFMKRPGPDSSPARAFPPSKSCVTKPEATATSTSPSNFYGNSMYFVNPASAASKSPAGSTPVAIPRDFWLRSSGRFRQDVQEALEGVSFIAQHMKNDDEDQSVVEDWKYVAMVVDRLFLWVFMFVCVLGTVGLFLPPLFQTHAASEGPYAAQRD
T3 sequence (P36544 23-502): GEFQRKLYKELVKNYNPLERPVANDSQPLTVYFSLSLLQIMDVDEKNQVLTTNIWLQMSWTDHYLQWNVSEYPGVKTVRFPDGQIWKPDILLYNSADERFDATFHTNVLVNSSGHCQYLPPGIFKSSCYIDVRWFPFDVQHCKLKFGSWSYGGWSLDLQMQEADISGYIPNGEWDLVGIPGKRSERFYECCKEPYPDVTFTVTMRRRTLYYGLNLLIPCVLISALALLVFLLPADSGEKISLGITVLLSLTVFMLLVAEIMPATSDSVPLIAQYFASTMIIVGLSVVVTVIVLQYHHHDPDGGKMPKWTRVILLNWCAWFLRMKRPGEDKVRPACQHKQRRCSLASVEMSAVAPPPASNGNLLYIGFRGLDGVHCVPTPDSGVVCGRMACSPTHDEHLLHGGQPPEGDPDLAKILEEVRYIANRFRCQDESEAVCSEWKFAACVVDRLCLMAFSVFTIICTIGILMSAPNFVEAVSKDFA
T2 sequence (P17787 26-502): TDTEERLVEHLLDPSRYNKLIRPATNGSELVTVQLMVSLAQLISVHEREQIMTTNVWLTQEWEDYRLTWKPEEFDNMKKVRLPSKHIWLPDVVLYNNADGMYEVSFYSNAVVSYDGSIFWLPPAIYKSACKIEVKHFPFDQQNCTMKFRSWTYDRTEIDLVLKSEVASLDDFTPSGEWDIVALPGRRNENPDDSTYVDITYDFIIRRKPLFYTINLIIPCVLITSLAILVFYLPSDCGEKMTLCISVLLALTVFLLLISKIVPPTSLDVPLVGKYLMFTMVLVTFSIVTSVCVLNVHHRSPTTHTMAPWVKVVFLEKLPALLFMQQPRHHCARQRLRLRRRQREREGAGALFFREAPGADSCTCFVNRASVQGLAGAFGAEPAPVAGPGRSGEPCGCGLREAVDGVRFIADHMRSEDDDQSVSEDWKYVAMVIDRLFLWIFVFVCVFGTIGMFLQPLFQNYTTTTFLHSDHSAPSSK
T2 sequence (P43681 29-627): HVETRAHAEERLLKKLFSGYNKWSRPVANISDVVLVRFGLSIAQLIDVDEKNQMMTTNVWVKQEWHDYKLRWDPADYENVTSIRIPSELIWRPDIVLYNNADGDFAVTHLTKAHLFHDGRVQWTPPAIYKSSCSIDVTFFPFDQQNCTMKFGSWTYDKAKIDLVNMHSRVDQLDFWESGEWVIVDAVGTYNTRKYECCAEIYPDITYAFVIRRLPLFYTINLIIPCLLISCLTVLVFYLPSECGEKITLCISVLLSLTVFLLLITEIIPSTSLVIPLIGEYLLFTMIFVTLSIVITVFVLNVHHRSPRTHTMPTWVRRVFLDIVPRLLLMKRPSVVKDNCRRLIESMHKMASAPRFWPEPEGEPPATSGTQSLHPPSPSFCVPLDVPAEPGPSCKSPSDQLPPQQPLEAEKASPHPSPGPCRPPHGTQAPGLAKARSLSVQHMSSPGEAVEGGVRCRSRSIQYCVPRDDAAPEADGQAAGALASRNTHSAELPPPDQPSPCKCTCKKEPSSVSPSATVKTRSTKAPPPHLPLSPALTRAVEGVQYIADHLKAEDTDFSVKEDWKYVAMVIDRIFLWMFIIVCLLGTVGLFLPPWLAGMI

C1=CCC(c2cccnc2)NC1 (racemic) [Anatabine (racemate)] was tested, and the “Normalized % Activation” value (nAChR α3/β4 [1]; test conc 0.3 μM) was 1.32%, the “Normalized % Activation” value (nAChR α3/β4 [1]; test conc 1 μM) was −0.01% and the “Normalized % Activation” value (nAChR α3/β4 [1]; test conc 3 μM) was −1.53%. The “Normalized % Activation” value (nAChR α3/β4 [1]; test conc 10 μM) was −2.73%, the “Normalized % Activation” value (nAChR α3/β4 [1]; test conc 30 μM) was 4.93% and the “Normalized % Activation” value (nAChR α3/β4 [1]; test conc 100 μM) was 10.44%. The “Normalized % Activation” value (nAChR α3/β4 [1]; test conc 300 μM) was 16.97%, the “Normalized % Activation” value (nAChR α4/β2; test conc 0.3 μM) was 0.28% and the “Normalized % Activation” value (nAChR α4/β2; test conc 1 μM) was 5.36%. For the same compound, the “Normalized % Activation” value (nAChR α4/β2; test conc 3 μM) was 10.41%, the “Normalized % Activation” value (nAChR α4/β2; test conc 10 μM) was 12.65% and the “Normalized % Activation” value (nAChR α4/β2; test conc 30 μM) was 9.07%. For the same compound, the “Normalized % Activation” value (nAChR α4/β2; test conc 100 μM) was 16.96%, the “Normalized % Activation” value (nAChR α4/β2; test conc 300 μM) was 50.60% and the “Normalized % Activation” value (nAChR α4/β2; test conc 1000 μM) was 85.29%. For the same compound, the “Normalized % Activation” value (nAChR α7; test conc 0.3 μM) was −1.81%, the “Normalized % Activation” value (nAChR α7; test conc 1 μM) was 0.34% and the “Normalized % Activation” value (nAChR α7; test conc 3 μM) was 0.78%. The “Normalized % Activation” value (nAChR α7; test conc 10 μM) was 1.65%, the “Normalized % Activation” value (nAChR α7; test conc 30 μM) was 2.27% and the “Normalized % Activation” value (nAChR α7; test conc 100 μM) was 5.69%. The “Normalized % Activation” value (nAChR α7; test conc 300 μM) was 14.45%, the “Normalized % Activation” value (nAChR α7; test conc 1000 μM) was 60.41% and the “Normalized % Potentiation” value (nAChR α3/β4 [2]; test conc 0.3 μM) was −1.98%. For the same compound, the “Normalized % Potentiation” value (nAChR α3/β4 [2]; test conc 1 μM) was −4.08%, the “Normalized % Potentiation” value (nAChR α3/β4 [2]; test conc 3 μM) was −2.88% and the “Normalized % Potentiation” value (nAChR α3/β4 [2]; test conc 10 μM) was −3.20%. For the same compound, the “Normalized % Potentiation” value (nAChR α3/β4 [2]; test conc 30 μM) was −8.50%, the “Normalized % Potentiation” value (nAChR α3/β4 [2]; test conc 100 μM) was −9.46% and the “Normalized % Potentiation” value (nAChR α3/β4 [2]; test conc 300 μM) was −9.38%. For the same compound, the “Normalized % Potentiation” value (nAChR α3/β4 [2]; test conc 1000 μM) was −9.17%.
